Series [1] relates to Normal human fibroblasts. Nature of the series: Amount of mitochondria (Mito Tracker Mitochondrion-Selective Probes). The series is classed as cell-based. The following applies: for amount of mitochondria relative to Control: Control = 100%, Example 1/2/3 = 0.002/0.01/0.05 wt % ingredient, Comparative Example 1 = 0.0023 wt % resveratrol. An excerpt:
Example 1: a basal medium comprising 0.002 wt % of grape seed-derived anti-aging ingredients of the present invention. Example 2: a basal medium comprising 0.01 wt % of grape seed-derived anti-aging ingredients of the present invention. Example 3: a basal medium comprising 0.05 wt % of grape seed-derived anti-aging ingredients of the present invention. Comparative Example 1: a basal medium containing 0.0023 wt % of resveratrol. Control: a basal medium (comprising no grape seed-derived anti-aging ingredients of the present invention nor resveratrol). The amount of mitochondria was measured using Mito Tracker Mitochondrion-Selective Probes (Invitrogen, product No.: M7512) which can selectively label mitochondria in a cell. After removing culture supernatants of normal human fibroblasts cultured in Example 2, normal human fibroblasts were washed twice with PBS (Nissui Pharmaceutical Co., Ltd., product No.: 05913). To the washed cells were added a basal medium comprising a 1000-fold diluted Hoechist 33342 solution (DOJINDO LABORATORIES, product No.: 346-07951) and a 2000-fold diluted Mito Tracker Mitochondrion-Selective Probes (Invitrogen, product No.: M7512), and normal human fibroblasts were cultured at 37° C. for 30 minutes. After the culture, culture supernatants were removed and normal human fibroblasts were washed twice with PBS (Nissui Pharmaceutical Co., Ltd., product No.: 05913). After wash, PBS (Nissui Pharmaceutical Co., Ltd., product No.: 05913) was newly added to the normal human fibroblasts, and nuclei staining (living cells) and stained images of mitochondria were taken by a fluorescence microscope (Keyence Corporation, product No.: BZ-[…]). Subsequently, each fluorescence intensity was measured using a fluorescent plate reader (Thermo Fisher Scientific, product No.: VARIOSKAN FLASH) (Hoechis: excitation wavelength 356 nm, fluorescence wavelength 465 nm, Mito Tracker: excitation wavelength 579 nm, fluorescence wavelength 599 nm).

The test system of series [2] is Normal human fibroblasts. Nature of the series: Workload of a certain amount of mitochondria (MTT assay). Conditions: for workload of a certain amount of mitochondria relative to Control: Control = 100%, Example 1/2/3 = 0.002/0.01/0.05 wt % ingredient, Comparative Example 1 = 0.0023 wt % resveratrol. The series is classed as cell-based. An excerpt:
Example 1: a basal medium comprising 0.002 wt % of grape seed-derived anti-aging ingredients of the present invention. Example 2: a basal medium comprising 0.01 wt % of grape seed-derived anti-aging ingredients of the present invention. Example 3: a basal medium comprising 0.05 wt % of grape seed-derived anti-aging ingredients of the present invention. Comparative Example 1: a basal medium containing 0.0023 wt % of resveratrol. Control: a basal medium (comprising no grape seed-derived anti-aging ingredients of the present invention nor resveratrol). The workload of a certain amount of mitochondria was measured by MTT assay. Since the only target of MTT assay is dehydrogenase activity of mitochondria, the result of MTT assay reflects the workload of a certain amount of mitochondria. After measuring the fluorescence intensity, supernatants were removed, and normal human fibroblasts were washed once with PBS (Nissui Pharmaceutical Co., Ltd., product No.: 05913). After the normal human fibroblasts were washed, they were replaced with PBS (100 μl/well) comprising 0.5 mg/ml of MTT (Thiazolyl Blue Tetrazolium Bromide (SIGMA, product No.: […] Subsequently, 100 μl of 0.01M HCl (SIGMA, product No.: 13-1690) and 10% SDS (Wako Pure Chemical Corporation, product No.: 191-07145) were added to each well and reacted at room temperature for 24 hours. After the reaction, formazan of MTT was resolved. After resolving formazan, absorbance was measured using a plate reader (Thermo Fisher Scientific, product No.: VARIOSKAN FLASH) (measurement wavelength 550 nm, reference wavelength 660 nm).

Series [3] has as its system Normal human fibroblasts. Briefly: Amount of necrosis cells (EthD-III staining). Conditions: for amount of the necrosis cells compared to the Control: Control = 100%, Comparative Example 1 = 0.0023 wt % resveratrol. The series is classed as cell-based. An excerpt: Example 1: a basal medium comprising 0.002 wt % of grape seed-derived anti-aging ingredients of the present invention. Example 2: a basal medium comprising 0.01 wt % of grape seed-derived anti-aging ingredients of the present invention. Example 3: a basal medium comprising 0.05 wt % of grape seed-derived anti-aging ingredients of the present invention. Comparative Example 1: a basal medium containing 0.0023 wt % of resveratrol. Control: a basal medium (comprising no grape seed-derived anti-aging ingredients of the present invention nor resveratrol). […] The amount of the necrosis cells was measured using an ethidium homodimer III (EthD-III) which has been conventionally used as a necrosis marker. In more detail, EthD-III is a film-impermeable nucleic acid probe and the amount of the necrosis cells was measured by using its property that neither the viable cells nor the apoptosis cells are stained but the necrosis cells are stained in strong red with EthD-III. After removing the culture supernatant of a normal human fibroblast cultured in Example 2, the normal human fibroblast was washed twice with PBS (NISSUI PHARMACEUTICAL CO., LTD., product No.: 05913). To the washed normal human fibroblast were added a 1×Binding Buffer containing a 1000-fold diluted Hoechist 33342 solution (DOJINDO LABORATORIES, product No.: 346-079511), a 20-fold diluted FITC-Annexin V, and a 20-fold diluted EthD-III. Then, the normal human fibroblast was cultured at 37° C. for 30 minutes. Then, after removing culture supernatant, the normal human fibroblast was washed twice in the 1×Binding Buffer. New 1×Binding Buffer was added to the normal human fibroblast after the washing, and images of nuclear staining (viable cell), Annexin V staining (apoptosis), and an EthD-III staining (necrosis) were taken by a fluorescence microscope. The amount of apoptosis cells and the amount of necrosis cells were calculated from the fluorescent observation images. Furthermore, FITC-Annexin V, EthD-III and 1×Binding Buffer used in Examples were from Apoptotic/Necrotic/Healthy Cells Detection Kit (Takara Bio, Inc. product No.: D25517).

The next series deals with male and female mouse. The following applies: cited from earlier work.
Series [4] has as its system Normal human fibroblasts. Briefly: Amount of apoptosis cells (FITC-Annexin V staining). The series is classed as cell-based. The following applies: for amount of the apoptosis cells compared to the Control: Control = 100%, Example 1/2/3 = 0.002/0.01/0.05 wt % ingredient, Comparative Example 1 = 0.0023 wt % resveratrol. An excerpt:
Example 1: a basal medium comprising 0.002 wt % of grape seed-derived anti-aging ingredients of the present invention. Example 2: a basal medium comprising 0.01 wt % of grape seed-derived anti-aging ingredients of the present invention. Example 3: a basal medium comprising 0.05 wt % of grape seed-derived anti-aging ingredients of the present invention. Comparative Example 1: a basal medium containing 0.0023 wt % of resveratrol. Control: a basal medium (comprising no grape seed-derived anti-aging ingredients of the present invention nor resveratrol). The amount of the apoptosis cells was measured using Annexin V which has been conventionally used as an apoptosis marker. In more detail, the amount of the apoptosis cells was measured by selectively fluorescently-staining the apoptosis cells by fluorescently labeled Annexin V, using its property that Annexin V binds to phosphatidylserine often appearing on a surface of the apoptosis cells. After removing the culture supernatant of a normal human fibroblast cultured in Example 2, the normal human fibroblast was washed twice with PBS (NISSUI PHARMACEUTICAL CO., LTD., product No.: 05913). To the washed normal human fibroblast were added a 1×Binding Buffer containing a 1000-fold diluted Hoechist 33342 solution (DOJINDO LABORATORIES, product No.: 346-079511), a 20-fold diluted FITC-Annexin V, and a 20-fold diluted EthD-III. Then, the normal human fibroblast was cultured at 37° C. for 30 minutes. Then, after removing culture supernatant, the normal human fibroblast was washed twice in the 1×Binding Buffer. New 1×Binding Buffer was added to the normal human fibroblast after the washing, and images of nuclear staining (viable cell), Annexin V staining (apoptosis), and an EthD-III staining (necrosis) were taken by a fluorescence microscope. The amount of apoptosis cells and the amount of necrosis cells were calculated from the fluorescent observation images. Furthermore, FITC-Annexin V, EthD-III and 1×Binding Buffer used in Examples were from Apoptotic/Necrotic/Healthy Cells Detection Kit (Takara Bio, Inc. product No.: D25517).

The test system of series [5] is Normal human fibroblasts. Briefly: Test for confirming anti-aging effect: amount of senescent cells by SA-β-gal (SPiDER-βGal) staining. The series is classed as cell-based. The following applies: for amount of the senescent cells relative to Control: Control = 100%, Example 1/2/3 = 0.002/0.01/0.05 wt % ingredient, Comparative Example 1 = 0.0023 wt % resveratrol. Here is the method: Subsequent to initiation, Normal human fibroblasts (KURABO INDUSTRIES LTD., product No.: KF-4109) were cultured in a basal medium (DMEM (Nacalai Tesque, Inc., product No.: 08456-65)), 10% FBS (BioWest, product No.: S1820, Lot No. 516536), and 1% antibiotic (penicillin-streptomycin mixed solution (Nacalai Tesque, Inc., product No.: 26253-84)) in a CO2 incubator (5% CO2, 37° C.) until a required number of cells were obtained. […] After the resolution, Example and Comparative Example resolved in a basal medium were centrifuged respectively (120,000 rpm (2,000 s^-1), 10 minutes) to remove insoluble materials. After the centrifugal separation, supernatant was collected, filtered and sterilized through a sterilizing filter to be used for each test. Anti-aging effect of Example and Comparative Example was tested by measuring an activity of β-galactosidase (senescence-associated β-galactosidase; SA-β-gal) generally used as a cell aging marker. Normal human fibroblasts prepared with a basal medium was seeded on a 96-well plate so as to be 1×10^4 cells/0.1 ml/well (black plate for fluorescence observation (Sumitomo Bakelite Co., Ltd. product No.: MS-8096F)) and cultured for 24 hours. After the culture, culture supernatants were respectively replaced with the below mediums with different conditions, and normal human fibroblasts were cultured again. The conditions for each medium are as follows. Each cell cultured with mediums with each condition are referred to as Examples 1-3, Comparative Example 1, and Control respectively. Example 1: a basal medium comprising 0.002 wt % of grape seed-derived anti-aging ingredients of the present invention. Example 2: a basal medium comprising 0.01 wt % of grape seed-derived anti-aging ingredients of the present invention. Example 3: a basal medium comprising 0.05 wt % of grape seed-derived anti-aging ingredients of the present invention. Comparative Example 1: a basal medium containing 0.0023 wt % of resveratrol. Control: a basal medium (comprising no grape seed-derived anti-aging ingredients of the present invention nor resveratrol). Normal human fibroblasts were cultured respectively with the conditions for up to 21 days. The mediums were exchanged every 2 to 3 days. After the culture, culture supernatants were removed and the cells were washed twice with PBS (Nissui Pharmaceutical Co., Ltd., product No.: 05913). […] After wash, the basal medium was added to normal human fibroblasts, and nuclei staining (living cells) and stained images of the senescent cells were taken by a fluorescence microscope (Keyence Corporation, product No.: BZ-[…]). The amount of the senescent cells were calculated based on the respective fluorescent images. […]

The subject of series [6] is budding yeast (Saccharomyces cerevisiae). Conditions: cited from earlier work.

As to `Oc1ccc(/C=C/c2cc(O)cc(O)c2)cc1` [Comparative Example 1, trans-3,4′,5-trihydroxy-stillbene], the “effect on the amount of mitochondria, in words” value in the series on Normal human fibroblasts [1] (7 to 21 days of culture) is recorded as “increasing an amount of mitochondria”. Further, the “amount of mitochondria relative to Control” value was 191% in the series with Normal human fibroblasts [1] (cultured for 7 days) and 228% in the series with Normal human fibroblasts [1] (cultured for 14 days). The “effect on the workload of a certain amount of mitochondria, in words” value in the series with Normal human fibroblasts [2] (7 to 21 days of culture) is on record as “decreasing the workload of a certain amount of mitochondria”. For the same compound, the “workload of a certain amount of mitochondria relative to Control” value was determined as 22% in the series with Normal human fibroblasts [2] (cultured for 7 days), 20% in the series on Normal human fibroblasts [2] (cultured for 14 days) and 49% in the series with Normal human fibroblasts [2] (cultured for 21 days). Also, the “effect on the amount of the necrosis cells, in words” value with Normal human fibroblasts [3] (7 to 21 days of culture) was “increasing the amount of the necrosis cells in all the periods”. In addition, the “necrosis cells at higher concentration, in words” value in the series with Normal human fibroblasts [3] (concentration of resveratrol more than 0.0023 wt %) is “necrosis cells increase too much”. In addition, the “amount of the necrosis cells compared to the Control” value in the series on Normal human fibroblasts [3] (cultured for 7 days) came out at 125%; in the series with Normal human fibroblasts [3] (cultured for 14 days (FIG. 5B), Example 1/2/3 = 0.002/0.01/0.05 wt % ingredient) it was 801%; in the series on Normal human fibroblasts [3] (cultured for 21 days, Example 1/2/3 = 0.002/0.01/0.05 wt % ingredient), 608%. Further, the “effect on life span of mice, in words” value with male and female mouse is recorded as “does not extend the life span”. The “effect on the amount of the apoptosis cells, in words” value with Normal human fibroblasts [4] (7 to 21 days of culture) is given as “increasing the amount of the apoptosis cells”. Further, the “amount of the apoptosis cells compared to the Control” value in the series on Normal human fibroblasts [4] (cultured for 7 days) is listed as 2184%; in the series on Normal human fibroblasts [4] (cultured for 14 days), 1400%; with Normal human fibroblasts [4] (cultured for 21 days), 4525%. In addition, in the series on Normal human fibroblasts [5] (cells cultured for 7 days), the “amount of senescent cells versus Control, in words” value is “more senescent cells among cells cultured for 7 days than Control”. In addition, the “amount of the senescent cells relative to Control” value in the series on Normal human fibroblasts [5] (cultured for 7 days) is listed as 519%; in the series with Normal human fibroblasts [5] (cultured for 14 days), 102%; with Normal human fibroblasts [5] (cultured for 21 days), 64%. In addition, the “extension of the life span of the budding yeast” value in series [6] is recorded as 70%.

The record behind these values is patent US20220347253A1, “HEALTH FOOD AND COSMETICS FOR INCREASING THE AMOUNT OF APOPTOSIS CELLS AND DECREASING THE AMOUNT OF NECROSIS CELLS AND A METHOD OF MANUFACTURING A SPROUT-FORCING GRAPE SEED-DERIVED INGREDIENT FOR INCREASING THE AMOUNT OF APOPTOSIS CELLS AND DECREASING THE AMOUNT OF NECROSIS CELLS” (priority 2017, published 2022).
